# Laboratory results: patent publication US7935680B2, “Methods for modulating the axonal growth of central nervous system neurons” (Children's Medical Center Corporation, priority 1997, dated 2011)
# “Also recorded” adds a separate entry of the source.
# Legend:
# Assay type in all cases: cell-based
# [1] = system: goldfish retinal ganglion cells; assay: Axonal outgrowth from dissociated goldfish retinal ganglion cell cultures; conditions: for decline of AF-1 activity: n.s.; for effect of reducing agents on outgrowth stimulated by AF-1: a-tocopherol 30 μM, MEG 100 μM
# Experimental: Axogenesis factor-1 was obtained essentially as described in Schwalb et al., 1995, and Schwalb et al., Neuroscience, 72: 901-910, 1996, the contents of which are incorporated herein by reference). Optic nerves were dissected, cut into fragments 1 mm in length, and incubated in a ratio of 6 nerves in 3 ml of either L-15 media (Gibco BRL) or phosphate-buffered saline (Gibco BRL). After 3-4 hours, nerve fragments were removed by filtering through a 0.22 μm pore low protein-binding filter (Gelman). A low molecular weight fraction of the conditioned media was prepared by ultrafiltration, first with a molecular weight cut-off of 3 kDa (Amicon Centriprep-3), then with a cut-off of 1 kDa (Filtron). The filtrate was used as a positive control at 20-30% final concentration. […] Goldfish (Comet Variety, Mt. Parnell Fisheries, Mt. Parnell Pa.), 6-10 cm in length, were dark-adapted and their retinas dissected. Retinas were incubated with papain (20 μg/ml), activated with cysteine (2.8 mM) for 30 minutes at room temperature, then dissociated by gentle trituration. […] Neuroscience 15: 5514-5625, 1995, the contents of which are incorporated herein by reference). […] Cells were maintained at 21° C. in serum free, defined media containing insulin, selenium, transferrin, bovine serum albumin, catalase, superoxide dismutase, hormones, and vitamins in Eagle's L-15 media as described in Schwalb et al., 1995, the contents of which are incorporated herein by reference). Dissociated cultures of purified rat retinal ganglion cells were prepared by immunopanning as described in Barres et al., Neuron, 1: 791-803, 1988, the contents of which are incorporated herein by reference). In brief, retinas from postnatal day 8 Sparague-Dawley rats were dissociated using papain activated with cysteine. Macrophages were removed by incubation with an anti-rat macrophage antibody (Accurate) followed by immunopanning with an anti-rabbit 1gG antibody. Ganglion cells were isolated by immunopanning with an anti-Thy-1 antibody, then dislodged with trypsin for use in low-density cultures. Rat retinal ganglion cells were maintained at 37° C. in a CO2 incubator using the same medium described above except for the presence of 30 mM bicarbonate. In a typical experiment, samples were plated in quadruplicate in randomized positions of a 24-well plate and the code was concealed to ensure that growth was evaluated in a blinded fashion. Each experiment contained 4 wells of a negative control (media plus supplements only) and 4 wells of a positive control (a standardized AF-1 sample of known activity). […] After the completion of counting, the code was broken, the data tabulated, and means and standard errors were calculated for the 4 replicate wells of each sample using Cricket Graph (CA Associates, […].). […] Group comparisons were based upon pairwise, 2-tailed Student's t-tests. Several independent experiments were performed for most samples, as noted in the figure legends. […] Cell survival is reported as the number of viable RGCs per high-powered field.
# [2] = system: goldfish retinal ganglion cells; assay: Cell survival in goldfish retinal ganglion cell cultures (viable RGCs per field)
# Experimental: Goldfish (Comet Variety, Mt. Parnell Fisheries, Mt. Parnell Pa.), 6-10 cm in length, were dark-adapted and their retinas dissected. Retinas were incubated with papain (20 μg/ml), activated with cysteine (2.8 mM) for 30 minutes at room temperature, then dissociated by gentle trituration. […] Low density cultures were achieved by plating c. 5×10^3 cells/well into poly L-lysine coated, 24-well culture dishes (Costar, Cambridge, Mass.). […] In brief, retinas from postnatal day 8 Sparague-Dawley rats were dissociated using papain activated with cysteine. Macrophages were removed by incubation with an anti-rat macrophage antibody (Accurate) followed by immunopanning with an anti-rabbit 1gG antibody. Ganglion cells were isolated by immunopanning with an anti-Thy-1 antibody, then dislodged with trypsin for use in low-density cultures. Rat retinal ganglion cells were maintained at 37° C. in a CO2 incubator using the same medium described above except for the presence of 30 mM bicarbonate.
# In a typical experiment, samples were plated in quadruplicate in randomized positions of a 24-well plate and the code was concealed to ensure that growth was evaluated in a blinded fashion. Each experiment contained 4 wells of a negative control (media plus supplements only) and 4 wells of a positive control (a standardized AF-1 sample of known activity). Growth and survival were assessed after 6 days for all ganglion cells in 25 consecutive fields of each well using phase contrast microscopy at 400× magnification (c. 150 ganglion cells counted per well). […] After the completion of counting, the code was broken, the data tabulated, and means and standard errors were calculated for the 4 replicate wells of each sample using Cricket Graph (CA Associates, Islandia, N.Y.). Data were normalized by subtracting the growth in the negative controls (usually 4-5%) and dividing by the net growth in the positive controls. […] Group comparisons were based upon pairwise, 2-tailed Student's t-tests. Several independent experiments were performed for most samples, as noted in the figure legends. In some cases, cell viability was assessed with the dye 5,6-carboxyfluorescein diacetate. Cell survival is reported as the number of viable RGCs per high-powered field.
# [3] = system: rat retinal ganglion cells; assay: Axonal outgrowth from purified rat retinal ganglion cells; conditions: 6-TG 10 μM, rat RGCs
# Experimental: Goldfish (Comet Variety, Mt. Parnell Fisheries, Mt. Parnell Pa.), 6-10 cm in length, were dark-adapted and their retinas dissected. Retinas were incubated with papain (20 μg/ml), activated with cysteine (2.8 mM) for 30 minutes at room temperature, then dissociated by gentle trituration. Repeated cycles of trituration and sedimentation yielded cultures nearly homogeneous in ganglion cells, which are readily identified by their oval shape, phase-bright appearance, size (diameter 15 μm), and extension of only 1 or 2 neurites of uniform caliber; these criteria have been verified by retrograde labeling (see Schwartz & Agranoff, Brain Res. 206: 331-343, 1981 and Schwalb et al., J. Neuroscience 15: 5514-5625, 1995, the contents of which are incorporated herein by reference). Low density cultures were achieved by plating c. 5×10^3 cells/well into poly L-lysine coated, 24-well culture dishes (Costar, Cambridge, Mass.). Cells were maintained at 21° C. in serum free, defined media containing insulin, selenium, transferrin, bovine serum albumin, catalase, superoxide dismutase, hormones, and vitamins in Eagle's L-15 media as described in Schwalb et al., 1995, the contents of which are incorporated herein by reference). Dissociated cultures of purified rat retinal ganglion cells were prepared by immunopanning as described in Barres et al., Neuron, 1: 791-803, 1988, the contents of which are incorporated herein by reference). In brief, retinas from postnatal day 8 Sparague-Dawley rats were dissociated using papain activated with cysteine. Macrophages were removed by incubation with an anti-rat macrophage antibody (Accurate) followed by immunopanning with an anti-rabbit 1gG antibody. Ganglion cells were isolated by immunopanning with an anti-Thy-1 antibody, then dislodged with trypsin for use in low-density cultures. Rat retinal ganglion cells were maintained at 37° C. in a CO2 incubator using the same medium described above except for the presence of 30 mM bicarbonate.
# In a typical experiment, samples were plated in quadruplicate in randomized positions of a 24-well plate and the code was concealed to ensure that growth was evaluated in a blinded fashion. Each experiment contained 4 wells of a negative control (media plus supplements only) and 4 wells of a positive control (a standardized AF-1 sample of known activity). Growth and survival were assessed after 6 days for all ganglion cells in 25 consecutive fields of each well using phase contrast microscopy at 400× magnification (c. 150 ganglion cells counted per well). Extension of a process 5 cell diameters in length was the criterion for growth, since it clearly distinguishes stimulated cells from negative controls (see Schwalb et al., 1995). After the completion of counting, the code was broken, the data tabulated, and means and standard errors were calculated for the 4 replicate wells of each sample using Cricket Graph (CA Associates, Islandia, N.Y.). Data were normalized by subtracting the growth in the negative controls (usually 4-5%) and dividing by the net growth in the positive controls. In the most favorable experiments, more than 50% of retinal ganglion cells (RGCs) exposed to AF-1 extended axons 5 cell diameters in length after 6 days. Group comparisons were based upon pairwise, 2-tailed Student's t-tests. Several independent experiments were performed for most samples, as noted in the figure legends. In some cases, cell viability was assessed with the dye 5,6-carboxyfluorescein diacetate. […]
# [4] = DCF alone, with AF-1, or with guanosine
compound,measurement,setting,value
"8-bromoadenosine-3′,5′ cyclic monophosphorothioate [Sp-8-Br-cAMPS]",axonal outgrowth activity,[1]; concentrations up to 1 mM,inactive
"CCCCCC[C@@H]([C@@H](C)O)n1cnc2c(N)ncnc21 (racemic) [EHNA, erythro-9-(2-hydroxy-3-nonyl) adenine]",effect on adenosine-stimulated outgrowth,"[1]; 10 μM EHNA, 100 μM adenosine",rendered adenosine (100 μM) ineffective in stimulating outgrowth
same,reduction of growth stimulated by guanosine or AF-1,[1]; EHNA 10 μM,about 50%
same,cell survival,[2],not altering cell survival
"Nc1nc(Cl)nc2c1ncn2[C@@H]1O[C@H](CO)[C@@H](O)[C@H]1O [2-CA, 2-chloroadenosine]",growth relative to baseline,"[1]; 100 μM, FIG. 2",diminishes growth below baseline levels
same,growth relative to baseline,"[1]; 10 and 100 μM, 3 out of 3 experiments",small but significant decrease in growth below the baseline
"Nc1nc2nc[nH]c2c(=S)[nH]1 [6-TG, 6-thioguanine]",effect on growth stimulated by 100 μM inosine or 100 μM guanosine,[1]; 6-TG 10 μM,no effect; also recorded: unaffected
same,effect on growth stimulated by AF-1,[1]; 6-TG 10 μM,blocked all growth stimulated by AF-1; also recorded: suppressed growth induced by AF-1 below baseline; also recorded: completely blocked
same,effect on CNTF-induced outgrowth,[3],blocked CNTF-induced outgrowth; also recorded: inhibited
"Nc1nc2c(nc(Br)n2[C@@H]2O[C@@H]3COP(=O)(O)O[C@H]3[C@H]2O)c(=O)[nH]1 [8-Br cGMP, 8-bromo cyclic GMP]",axonal outgrowth activity,[1]; tested at concentrations between 1-100 μM,Neither dibutyryl cAMP (dBcAMP) nor 8-Br cGMP showed any activity
"Cn1c(=O)c2[nH]c(-c3ccc(S(=O)(=O)O)cc3)nc2n(C)c1=O [8-PST, 8-p-(sulfophenyltheophylline)]","effect on outgrowth stimulated by adenosine, guanosine, or AF-1",[1]; 8-PST at 20 μM,no effect
same,"effect on outgrowth stimulated by AF-1, 100 μM adenosine or 100 μM guanosine",[1]; addition of 20 pM 8-PST,unaffected
"Nc1nc2c(nc(Sc3ccc(Cl)cc3)n2[C@@H]2O[C@@H]3COP(=O)(O)O[C@H]3[C@H]2O)c(=O)[nH]1 [8-pcpt-cGMP, 8-(4-chlorophenylthio) guanosine-3′,5′-cyclic monophosphate]",axonal outgrowth activity,[1]; concentrations up to 1 mM,inactive
"Nc1ncnc2c1ncn2[C@@H]1O[C@H](COP(=O)(O)OP(=O)(O)O)[C@@H](O)[C@H]1O [ADP, adenosine diphosphate]",axonal outgrowth activity,[1]; at 100 μM,marginally significant level of activity
"Nc1ncnc2c1ncn2[C@@H]1O[C@H](COP(=O)(O)O)[C@@H](O)[C@H]1O [AMP, adenosine 5′ monophosphate]",axonal outgrowth activity,[1]; at 100 μM,marginally significant level of activity
"Nc1ncnc2c1ncn2[C@@H]1O[C@H](COP(=O)(O)OP(=O)(O)OP(=O)(O)O)[C@@H](O)[C@H]1O [ATP, adenosine triphosphate]",axonal outgrowth activity,[1]; at 10 μM,marginally significant level of activity
same,axonal outgrowth activity,[1]; at 100 μM,not at 100 μM
"OC[C@H]1O[C@@H](n2cnc3c2NC=NC[C@H]3O)C[C@@H]1O [DCF, deoxycoformycin]",effects of DCF on outgrowth,[1]; [4],did not occur
same,effects of DCF on survival,[2]; [4],did not occur
"O=[N+]([O-])c1ccc(CSc2ncnc3c2ncn3C2OC(CO)C(O)C2O)cc1 (centres unmarked) [NBTI, nitrobenzylthio inosine]",effect on the activity of AF-1,[1]; NBTI 20 μM,no effect
same,loss of activity of inosine,"[1]; NBTI 20 μM, 50 μM inosine",86%
same,loss of activity of guanosine,"[1]; NBTI 20 μM, 100 μM guanosine",93%
same,decline of AF-1 activity,"[1]; NBTI 20 μM, dipyridamole 10 μM",10%
Cc1c(C)c2c(c(C)c1O)CC[C@@](C)(CCC[C@H](C)CCC[C@H](C)CCCC(C)C)O2 [a-tocopherol],effect of reducing agents on outgrowth stimulated by AF-1,[1],no effect; also recorded: not mimicked
OCCN(CCO)c1nc(N2CCCCC2)c2nc(N(CCO)CCO)nc(N3CCCCC3)c2n1 [dipyridamole],effect of transport inhibitors on 6-TG blockade of AF-1-stimulated outgrowth,"[1]; 6-TG 10 μM, NBTI 20 μM, dipyridamole 10 μM",failed to prevent 6-TG from blocking outgrowth; also recorded: not restored
same,decline of AF-1 activity,"[1]; NBTI 20 μM, dipyridamole 10 μM",25%
O=c1[nH]cnc2nc[nH]c12 [hypoxanthine],axonal outgrowth activity,"[1]; dose-response, FIG. 4",no activity at all
same,axonal outgrowth activity,"[1]; dose-response, FIG. 4, listed as Hypoxanthine",inactive
glutathione a-methyl ester [MEG],effect of reducing agents on outgrowth stimulated by AF-1,[1],no effect; also recorded: not mimicked
